Like-named read-outs stand apart in the source and are kept apart here.
Columns and labels:
Assay in all cases: KinomeScan kinase panel, single concentration 10 µM
Type in all cases: binding
[1] = target: T1, KinomeScan kinase panel (Homo sapiens, UniProt Q92772); details: CDKL2, 10 µM; read-out: score (%)
T1 construct: purchased DiscoveRx (KinomeScan)
T1 sequence (Q92772 1-493): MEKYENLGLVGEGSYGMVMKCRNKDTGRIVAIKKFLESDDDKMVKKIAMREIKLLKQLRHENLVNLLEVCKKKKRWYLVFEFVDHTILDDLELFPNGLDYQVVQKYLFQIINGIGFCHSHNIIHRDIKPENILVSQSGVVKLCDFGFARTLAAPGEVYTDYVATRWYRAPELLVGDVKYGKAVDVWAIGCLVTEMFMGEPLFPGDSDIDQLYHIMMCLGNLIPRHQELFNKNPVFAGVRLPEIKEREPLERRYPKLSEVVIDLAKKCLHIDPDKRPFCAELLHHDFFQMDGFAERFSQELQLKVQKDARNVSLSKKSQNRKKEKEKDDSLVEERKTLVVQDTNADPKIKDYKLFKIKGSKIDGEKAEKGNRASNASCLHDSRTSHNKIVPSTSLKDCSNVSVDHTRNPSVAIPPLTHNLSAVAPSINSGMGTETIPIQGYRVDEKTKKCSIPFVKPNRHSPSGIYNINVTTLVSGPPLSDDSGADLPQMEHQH

[2] = target: T2, KinomeScan kinase panel (Homo sapiens, UniProt P06239); details: LCK, 10 µM; read-out: score (%)
T2 construct: purchased DiscoveRx (KinomeScan)

[3] = target: T3, KinomeScan kinase panel (Homo sapiens, UniProt O00506); details: kinase YSK1; 10 µM; read-out: score (%)
T3 construct: purchased DiscoveRx (KinomeScan)

[4] = target: T4, KinomeScan kinase panel (Homo sapiens, UniProt Q07002); details: PCTK3, 10 µM; read-out: score (%)
T4 construct: purchased DiscoveRx (KinomeScan)

[5] = target: T5, KinomeScan kinase panel (Homo sapiens, UniProt O94921); details: PFTK1, 10 µM
T5 construct: purchased DiscoveRx (KinomeScan)

[6] = target: T6, KinomeScan kinase panel (Homo sapiens, UniProt P35916); details: FLT4, 10 µM; read-out: score (%)
T6 construct: purchased DiscoveRx (KinomeScan)

[7] = target: T7, KinomeScan kinase panel (Homo sapiens, UniProt P16591); details: FER, 10 µM; read-out: score (%)
T7 construct: purchased DiscoveRx (KinomeScan)

[8] = target: T8, KinomeScan kinase panel (Homo sapiens, UniProt Q9H1R3); details: MYLK2, 10 µM; read-out: score (%)
T8 construct: purchased DiscoveRx (KinomeScan)

[9] = target: T9, KinomeScan kinase panel (Homo sapiens, UniProt Q15139); details: read-out: score (%)
T9 construct: purchased DiscoveRx (KinomeScan)
T9 sequence (Q15139 1-912): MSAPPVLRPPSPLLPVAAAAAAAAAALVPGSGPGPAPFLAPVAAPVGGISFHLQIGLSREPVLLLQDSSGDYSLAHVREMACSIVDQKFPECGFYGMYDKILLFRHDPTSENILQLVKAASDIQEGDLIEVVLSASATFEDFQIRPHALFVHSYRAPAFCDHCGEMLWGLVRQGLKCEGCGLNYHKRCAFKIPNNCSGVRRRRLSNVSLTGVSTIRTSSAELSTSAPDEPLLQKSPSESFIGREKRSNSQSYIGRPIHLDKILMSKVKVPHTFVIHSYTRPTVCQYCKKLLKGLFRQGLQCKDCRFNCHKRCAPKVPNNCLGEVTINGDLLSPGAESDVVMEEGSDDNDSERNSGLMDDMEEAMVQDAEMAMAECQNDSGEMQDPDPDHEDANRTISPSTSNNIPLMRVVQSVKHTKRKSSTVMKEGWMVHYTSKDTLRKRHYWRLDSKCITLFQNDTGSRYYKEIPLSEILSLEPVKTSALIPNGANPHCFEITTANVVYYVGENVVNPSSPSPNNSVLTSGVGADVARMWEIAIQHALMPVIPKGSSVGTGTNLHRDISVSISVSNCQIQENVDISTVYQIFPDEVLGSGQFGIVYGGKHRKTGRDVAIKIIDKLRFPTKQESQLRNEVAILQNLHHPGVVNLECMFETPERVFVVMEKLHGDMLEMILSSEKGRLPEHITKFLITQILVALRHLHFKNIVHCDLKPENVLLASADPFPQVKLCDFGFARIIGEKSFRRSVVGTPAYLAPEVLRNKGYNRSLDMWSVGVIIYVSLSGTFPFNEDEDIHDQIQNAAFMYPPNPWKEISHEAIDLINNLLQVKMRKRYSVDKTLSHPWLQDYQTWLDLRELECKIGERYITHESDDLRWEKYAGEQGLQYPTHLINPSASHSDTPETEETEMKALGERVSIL

[10] = target: T10, KinomeScan kinase panel (Homo sapiens, UniProt O75116); details: read-out: score (%)
T10 construct: purchased DiscoveRx (KinomeScan)

[11] = target: T11, KinomeScan kinase panel (Homo sapiens, UniProt P51451); details: BLK, 10 µM; read-out: score (%)
T11 construct: purchased DiscoveRx (KinomeScan)

[12] = target: T12, KinomeScan kinase panel (Homo sapiens, UniProt Q99640); details: PKMYT1, 10 µM
T12 construct: purchased DiscoveRx (KinomeScan)
T12 sequence (Q99640 1-499): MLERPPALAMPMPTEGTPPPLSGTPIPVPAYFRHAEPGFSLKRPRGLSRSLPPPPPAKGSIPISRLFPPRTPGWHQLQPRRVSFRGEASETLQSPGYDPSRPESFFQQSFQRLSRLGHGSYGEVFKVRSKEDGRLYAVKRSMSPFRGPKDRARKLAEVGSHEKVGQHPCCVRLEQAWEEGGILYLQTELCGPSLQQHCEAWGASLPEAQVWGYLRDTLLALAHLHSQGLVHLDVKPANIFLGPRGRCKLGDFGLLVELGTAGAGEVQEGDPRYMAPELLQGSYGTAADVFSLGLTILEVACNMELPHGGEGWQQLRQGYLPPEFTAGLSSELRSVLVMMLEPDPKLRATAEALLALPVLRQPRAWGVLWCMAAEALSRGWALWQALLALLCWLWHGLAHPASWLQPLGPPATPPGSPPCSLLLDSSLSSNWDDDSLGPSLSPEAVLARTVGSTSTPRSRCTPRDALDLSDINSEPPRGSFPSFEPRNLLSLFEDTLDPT

T11 sequence (P51451 whole entry): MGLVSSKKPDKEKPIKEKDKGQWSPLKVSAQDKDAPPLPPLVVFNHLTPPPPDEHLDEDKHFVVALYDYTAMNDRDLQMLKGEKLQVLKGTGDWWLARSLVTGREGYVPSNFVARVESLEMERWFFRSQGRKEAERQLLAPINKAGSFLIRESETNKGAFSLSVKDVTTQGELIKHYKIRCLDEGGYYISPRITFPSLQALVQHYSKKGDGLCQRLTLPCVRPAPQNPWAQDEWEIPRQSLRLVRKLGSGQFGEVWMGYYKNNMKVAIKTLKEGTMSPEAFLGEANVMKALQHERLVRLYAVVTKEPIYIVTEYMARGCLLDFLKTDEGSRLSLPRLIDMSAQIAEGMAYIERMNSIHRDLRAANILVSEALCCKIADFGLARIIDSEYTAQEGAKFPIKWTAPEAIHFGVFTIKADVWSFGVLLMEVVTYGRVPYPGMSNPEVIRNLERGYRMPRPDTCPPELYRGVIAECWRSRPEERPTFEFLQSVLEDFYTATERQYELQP
T10 sequence (O75116 whole entry): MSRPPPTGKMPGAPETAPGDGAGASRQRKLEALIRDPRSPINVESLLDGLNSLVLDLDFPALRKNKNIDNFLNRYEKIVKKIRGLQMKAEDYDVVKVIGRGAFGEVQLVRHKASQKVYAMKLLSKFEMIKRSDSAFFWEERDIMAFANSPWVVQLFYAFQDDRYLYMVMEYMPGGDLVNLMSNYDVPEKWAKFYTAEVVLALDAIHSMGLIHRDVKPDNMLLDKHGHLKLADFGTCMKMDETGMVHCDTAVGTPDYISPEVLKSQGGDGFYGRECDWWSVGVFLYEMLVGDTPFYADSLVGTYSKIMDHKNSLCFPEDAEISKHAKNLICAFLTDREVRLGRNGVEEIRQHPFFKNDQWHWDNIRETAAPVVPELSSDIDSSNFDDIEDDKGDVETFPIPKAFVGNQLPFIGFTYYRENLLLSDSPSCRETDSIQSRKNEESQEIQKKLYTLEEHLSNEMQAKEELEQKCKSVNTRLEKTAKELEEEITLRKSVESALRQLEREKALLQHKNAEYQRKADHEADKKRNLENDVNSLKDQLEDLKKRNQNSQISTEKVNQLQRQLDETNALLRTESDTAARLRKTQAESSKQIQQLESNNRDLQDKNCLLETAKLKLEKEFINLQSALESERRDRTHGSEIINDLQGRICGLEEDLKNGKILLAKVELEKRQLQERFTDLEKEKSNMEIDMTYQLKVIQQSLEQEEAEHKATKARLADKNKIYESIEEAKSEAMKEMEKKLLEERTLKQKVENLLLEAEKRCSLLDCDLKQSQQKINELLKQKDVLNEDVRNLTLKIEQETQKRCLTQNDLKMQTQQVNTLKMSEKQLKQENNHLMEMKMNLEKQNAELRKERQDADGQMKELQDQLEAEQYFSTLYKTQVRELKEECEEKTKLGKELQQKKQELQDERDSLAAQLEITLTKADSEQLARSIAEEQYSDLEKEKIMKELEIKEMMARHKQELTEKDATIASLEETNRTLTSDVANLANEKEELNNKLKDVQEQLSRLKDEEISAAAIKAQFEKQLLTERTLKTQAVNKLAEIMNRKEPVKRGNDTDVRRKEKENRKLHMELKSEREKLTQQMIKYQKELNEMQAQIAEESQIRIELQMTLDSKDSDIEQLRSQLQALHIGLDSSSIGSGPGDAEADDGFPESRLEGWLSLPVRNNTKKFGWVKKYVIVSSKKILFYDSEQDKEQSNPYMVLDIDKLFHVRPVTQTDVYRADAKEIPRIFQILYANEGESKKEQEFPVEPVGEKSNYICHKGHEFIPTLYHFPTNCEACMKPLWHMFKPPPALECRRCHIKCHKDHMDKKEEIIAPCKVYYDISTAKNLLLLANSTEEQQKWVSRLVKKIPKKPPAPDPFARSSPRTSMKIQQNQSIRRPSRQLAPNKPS
T2 sequence (P06239 whole entry): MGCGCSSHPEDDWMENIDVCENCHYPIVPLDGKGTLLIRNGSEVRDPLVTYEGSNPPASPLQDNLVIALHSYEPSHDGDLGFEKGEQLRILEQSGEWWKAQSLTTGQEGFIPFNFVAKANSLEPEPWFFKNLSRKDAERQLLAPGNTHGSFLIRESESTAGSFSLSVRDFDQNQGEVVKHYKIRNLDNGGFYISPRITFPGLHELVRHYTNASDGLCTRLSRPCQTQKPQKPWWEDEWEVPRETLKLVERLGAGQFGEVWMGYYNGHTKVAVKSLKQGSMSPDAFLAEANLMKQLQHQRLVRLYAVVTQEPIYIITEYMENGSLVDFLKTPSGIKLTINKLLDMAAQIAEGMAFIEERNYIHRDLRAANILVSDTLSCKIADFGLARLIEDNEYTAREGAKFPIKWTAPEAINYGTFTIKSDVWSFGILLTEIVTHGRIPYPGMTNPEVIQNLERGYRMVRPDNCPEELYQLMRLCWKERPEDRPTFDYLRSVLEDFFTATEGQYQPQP
T3 sequence (O00506 whole entry): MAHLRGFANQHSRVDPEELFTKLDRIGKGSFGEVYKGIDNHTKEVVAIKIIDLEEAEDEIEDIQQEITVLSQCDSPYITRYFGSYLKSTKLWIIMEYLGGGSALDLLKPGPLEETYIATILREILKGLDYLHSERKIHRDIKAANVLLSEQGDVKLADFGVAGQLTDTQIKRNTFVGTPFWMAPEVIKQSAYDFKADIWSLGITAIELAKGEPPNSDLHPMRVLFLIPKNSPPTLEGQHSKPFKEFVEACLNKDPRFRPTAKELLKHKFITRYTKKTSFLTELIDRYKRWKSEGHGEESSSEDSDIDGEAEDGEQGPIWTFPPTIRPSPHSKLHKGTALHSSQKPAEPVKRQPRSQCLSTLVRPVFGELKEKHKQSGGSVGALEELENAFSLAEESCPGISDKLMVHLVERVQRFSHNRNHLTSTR
T6 sequence (P35916 25-1363): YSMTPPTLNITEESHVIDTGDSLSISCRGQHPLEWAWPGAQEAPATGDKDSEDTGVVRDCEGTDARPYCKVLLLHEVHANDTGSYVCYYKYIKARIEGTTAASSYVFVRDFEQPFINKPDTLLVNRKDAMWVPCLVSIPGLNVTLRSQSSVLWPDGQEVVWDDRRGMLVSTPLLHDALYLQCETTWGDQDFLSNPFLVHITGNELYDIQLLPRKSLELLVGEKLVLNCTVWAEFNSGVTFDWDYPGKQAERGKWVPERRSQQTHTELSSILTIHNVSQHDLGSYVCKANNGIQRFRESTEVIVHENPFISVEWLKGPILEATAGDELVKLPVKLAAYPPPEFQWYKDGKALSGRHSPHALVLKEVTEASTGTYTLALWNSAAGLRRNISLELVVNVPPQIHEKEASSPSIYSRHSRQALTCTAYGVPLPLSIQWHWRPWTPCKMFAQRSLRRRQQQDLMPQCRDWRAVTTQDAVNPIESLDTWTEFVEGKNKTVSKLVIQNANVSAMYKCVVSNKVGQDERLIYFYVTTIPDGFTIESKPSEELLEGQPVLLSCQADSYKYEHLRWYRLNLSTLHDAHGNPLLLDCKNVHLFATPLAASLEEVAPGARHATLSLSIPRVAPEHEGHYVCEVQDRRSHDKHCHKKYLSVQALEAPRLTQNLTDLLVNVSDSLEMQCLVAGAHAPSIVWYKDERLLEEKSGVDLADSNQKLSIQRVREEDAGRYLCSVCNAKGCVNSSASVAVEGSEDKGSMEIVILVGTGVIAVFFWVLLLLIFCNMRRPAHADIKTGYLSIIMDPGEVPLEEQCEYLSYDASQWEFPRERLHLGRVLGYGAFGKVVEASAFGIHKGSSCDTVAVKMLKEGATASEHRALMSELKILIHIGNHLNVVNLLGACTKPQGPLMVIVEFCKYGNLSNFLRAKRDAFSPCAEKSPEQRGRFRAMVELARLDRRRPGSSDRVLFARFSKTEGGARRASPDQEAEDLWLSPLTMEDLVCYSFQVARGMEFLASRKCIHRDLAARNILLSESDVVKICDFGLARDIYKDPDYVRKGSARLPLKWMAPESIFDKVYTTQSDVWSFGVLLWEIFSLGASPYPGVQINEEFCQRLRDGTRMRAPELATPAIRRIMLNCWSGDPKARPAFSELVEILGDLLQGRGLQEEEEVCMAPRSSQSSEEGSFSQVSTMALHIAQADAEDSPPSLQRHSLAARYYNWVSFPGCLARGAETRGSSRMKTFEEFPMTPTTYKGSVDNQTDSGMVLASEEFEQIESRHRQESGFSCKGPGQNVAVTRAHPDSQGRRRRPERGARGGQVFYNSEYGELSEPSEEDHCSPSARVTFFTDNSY
T4 sequence (Q07002 whole entry): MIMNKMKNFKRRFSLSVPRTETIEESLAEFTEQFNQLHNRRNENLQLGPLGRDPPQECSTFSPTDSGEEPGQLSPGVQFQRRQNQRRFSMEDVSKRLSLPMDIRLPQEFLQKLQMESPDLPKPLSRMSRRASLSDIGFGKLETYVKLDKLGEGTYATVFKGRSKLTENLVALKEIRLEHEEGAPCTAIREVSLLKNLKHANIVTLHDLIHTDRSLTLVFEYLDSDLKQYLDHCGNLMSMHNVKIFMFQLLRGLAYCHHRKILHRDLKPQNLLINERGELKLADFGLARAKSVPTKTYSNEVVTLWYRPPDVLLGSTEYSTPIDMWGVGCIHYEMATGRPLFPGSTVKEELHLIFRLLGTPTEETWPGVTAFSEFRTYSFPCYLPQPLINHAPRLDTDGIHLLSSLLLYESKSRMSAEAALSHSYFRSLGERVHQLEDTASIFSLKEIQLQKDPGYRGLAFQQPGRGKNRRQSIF

Row | SMILES | remaining binding at 10 µM [1] [%] | remaining binding at 10 µM [2] [%] | remaining binding at 10 µM [3] [%] | remaining binding at 10 µM [4] [%] | score (%) [5] | remaining binding at 10 µM [6] [%] | remaining binding at 10 µM [7] [%] | remaining binding at 10 µM [8] [%] | remaining binding at 10 µM ([9]; PRKD1, 10 µM) [%] | remaining binding at 10 µM ([10]; ROCK2, 10 µM) [%] | remaining binding at 10 µM [11] [%] | score (%) [12] | remaining binding at 10 µM ([9]; kinase PRKD1, 10 µM) [%] | remaining binding at 10 µM ([10]; kinase ROCK2, 10 µM) [%]
1 | CCN1CCN(Cc2ccc(NC(=O)c3ccc(C)c(NC(=O)c4cncc(-c5cccs5)c4)c3)cc2C(F)(F)F)CC1 [ALW-II-41-27] | 9.1 | 0.2 | > 30 | > 30 | nb (Hits values higher than 30% were considered negative (no binding: nb)) | 0 | 5.6 | > 30 | > 30 | 18 | 0.1 | nb (Hits values higher than 30% were considered negative (no binding: nb)) |  | 
2 | CCN1CCN(Cc2ccc(NC(=O)c3ccc(C)c(/C=C/c4cnc5[nH]ccc5c4Cl)c3)cc2C(F)(F)F)CC1 [HG-6-63-01, (E)-3-(2-(4-chloro-1H-pyrrolo[2,3-b]pyridin-5-yl)vinyl)-N-(4-((4-ethylpiperazin-1-yl)methyl)-3-(trifluoromethyl)phenyl)-4-methylbenzamide] | 0.5 | 0.1 | > 30 | > 30 | nb (Hits values higher than 30% were considered negative (no binding: nb)) | 0.15 | 14 | 0.25 | > 30 | > 30 | 0.2 | nb (Hits values higher than 30% were considered negative (no binding: nb)) |  | 
3 | CCN1CCN(Cc2ccc(NC(=O)c3ccc(C)c(C#Cc4cccnc4)c3)cc2C(F)(F)F)CC1 [XMD15-44] | 1.4 | 0.05 | 16 | 6.2 | 0.85% | 0 | 11 | 3.4 |  |  | 0 | 85% | 51 | 19
